Measurements from US20220112208A1, “COMPOUNDS WITH ANTIINFLAMMATORY ACTIVITY AND METHODS OF USE THEREOF” (King Abdullah University of Science and Technology, priority 2020, published 2022).
Read-outs that look alike come from different tables or passages of the source.

Key:
[1] = tested on: NO production in LPS-treated RAW 264.7 cells; assay: Inhibition of NO production (Griess reaction) in LPS-treated RAW 264.7 macrophages; assay type: cell-based, mouse
Experimental: (§1) Mouse macrophage cell line RAW 264.7 was cultured in DMEM medium (cat. #21885-025, Gibco) supplemented with 10% heat inactivated fetal bovine serum (cat. #10270-106, Gibco) and 1% penicillin-streptomycin (cat. #15070-063, Gibco). Cells were cultured in 37° C. and 5% CO2. Each compound was diluted in Carbowax™ 400+10% ethanol (cat. #1.00983, Sigma), used also as control solvent. Final concentration in culture was 0.1% v/v carbowax and 0.01% v/v ethanol. RAW 264.7 macrophages were activated using 100 ng/mL lipopolysaccharide (LPS) (L2630, Sigma). In IC50 determination experiments, macrophages were pre-treated for 1 h with the respective compound prior to LPS stimulation.
30×104 RAW 264.7 mouse macrophages were plated in 24-well plates over-night with 0.5 mL complete medium. Cells were pretreated for 1 h with the respected compound concentration and then stimulated with 100 ng/mL LPS (L2630, Sigma) for 48 h. The amount of nitrite, an oxidative product of NO, was measured in culture supernatant of each sample using the Griess reaction. 100 μL of supernatant was mixed with 100 μl of sulfanilamide solution (1% sulfanilamide in 5% H3PO4) and incubated for 5 min at room temperature. Then, 100 μL of NED solution (0.1% N-1-naphtylethylenediamine dihydrochlorite in H2O) was added and the absorbance was measured in an automated microplate reader (Infinate 200 PRO, Tecan) at 540 nm. Nitrite concentration was calculated using a sodium nitrite standard curve. All incubations were performed in the dark.
(§2) All data are presented as mean±SEM and as percentage in case of IC50 evaluation. Statistical analysis was performed using Graphpad Prism 7.0. D'Agostino & Pearson, Shapiro Wilk and KS tests were used to evaluate normality. In case of normality, one-way ANOVA was performed, whereas in all other cases the non-parametric Kruskal-Wallis test was used. Differences with a P value <0.05 are considered significant (*indicates P<0.05, **indicates P<0.01, ***indicates P<0.001).

[2] = tested on: RAW 264.7 macrophages; assay: MTT cytotoxicity / proliferation assay in RAW 264.7 macrophages; assay type: cell-based, mouse; settings: for Significant cytotoxicity at concentrations above: RAW 264.7, values given in nM
Experimental: as §1
3.5×103 RAW 264.7 mouse macrophages were seeded in 96-well plate and cultured overnight. Cells were subsequently treated with the respective compound concentration and incubated for 24, 48 and 72 h. Number of cells was measured prior to treatment and used as normalisation control. Thiazolyl Blue Tetrazolium Bromide (MTT) (A2231.001, Applichem) was added to the cells in a final concentration of 0.5 mg/mL and then cells were incubated at 37° C. and 5% CO2 for 4 h. The supernatant was discarded and cells were lysed with 2-propanol (33539, Honeywell) with 0.4% HCl (30721, Sigma). The absorbance of each sample was measured in an automated microplate reader (Infinite 200 PRO, Tecan) at 600 nm. The average OD of each treated sample was normalized to the OD of the control sample and statistical analysis was performed using Graphpad Prism 7.0.
as §2

[3] = Mus musculus, RAW264.7, LPS (100 ng/mL)-treated RAW 264.7, 1 h pre-treatment, 48 h, vs Carbowax 400 control, mean ± SEM, read-out: IC50 Inhibition of NO production
[4] = Mus musculus, RAW264.7, LPS-treated RAW 264.7, values given in nM, read-out: IC50 for inhibition of NO production (anti-inflammatory activity)
[5] = MTT, RAW 264.7, 72 h of treatment, concentration above which cytotoxic

Row | Compound | IC50 [1, 3] [nM] | IC50 [1, 4] [nM] | Cytotoxicity (at 72 h) [2, 5] [µM] | Significant cytotoxicity at concentrations above ([2]; MTT) | further results
1 | CC(=O)OC(C)(C)C1CC[C@](C)([C@@H](O)CC[C@](C)(O)[C@H]2CC[C@H]3O[C@@H]([C@]4(C)CC[C@@H](Br)C(C)(C)O4)CC[C@]3(C)O2)O1 (stereo partly shown) [a11, 23-acetyl-thyrsiferol] | 2.63 | 2.63 | >0.01 | above 10 nM | –
2 | CC[C@@H]1O[C@@H]2C/C=C\C[C@H](C=C=CBr)O[C@@H]2CC1Br (stereo partly shown) [Compound a3, Thuwalallene C] | 4180 | – | – | – | –
3 | CC(C)(O)C1CC[C@](C)([C@@H](O)CC[C@](C)(O)[C@H]2CC[C@H]3O[C@@H]([C@]4(C)CC[C@@H](Br)C(C)(C)O4)CC[C@]3(C)O2)O1 (stereo partly shown) [Compound a10, thyrsiferol] | 4.39 | 4.39 | >0.1 | above 100 nM | –
4 | CC[C@@H]1O[C@@H]2C[C@H]3O[C@H]3C[C@H](C=C=CBr)O[C@@H]2C[C@H]1Br [Compound a1, Thuwalallene A] | – | – | – | – | IC50 ([1]; LPS (100 ng/mL)-treated RAW 264.7, 1 h pre-treatment, 48 h, vs Carbowax 400 control, mean ± SEM, read-out: IC50 Inhibition of NO production): 26000 nM
5 | C#C/C=C\C[C@@H]1O[C@@H]2C[C@@H](Br)[C@H](CC)O[C@@H]2C[C@@H]1Br [Compound a4, Thuwalenyne A] | – | – | – | – | Anti-inflammatory activity (in words) ([1]; LPS-treated RAW 264.7, all concentrations tested): did not exhibit anti-inflammatory activity; Cytotoxicity (in words) [2]: did not exhibit anti-inflammatory activity or cytotoxicity; Cytotoxicity (at 72 h) ([2]; mouse, 72 h): >62.5 µM
